What all share (format): functional
For one assay, the system named is Klebsiella pneumoniae. Description: Antibacterial activity against Klebsiella pneumoniae ATCC 700603.
For another assay, the system named is Staphylococcus aureus. As to the kind of experiment: Antibacterial activity against Staphylococcus aureus ATCC 29213.
Assay [1] relates to Escherichia coli. As to the kind of experiment: Antibacterial activity against Escherichia coli N43.
For assay [2], the system named is Escherichia coli. As to the kind of experiment: Antibacterial activity against Escherichia coli W4573.
For the next assay, the system named is Acinetobacter baumannii. As to the kind of experiment: Antibacterial activity against Acinetobacter baumannii NCTC 13420.
The next assay concerns Pseudomonas aeruginosa. As to the kind of experiment: Antibacterial activity against Pseudomonas aeruginosa ATCC 27853.

Converted amounts (≈) assume the structure as drawn. Some results are limits rather than exact numbers.

In the case of `CCc1c(-c2ccc(N3CC[C@H](N(C)C)C3)cc2)[nH]c(=O)c2c(=O)[nH]sc12`, the MIC in the assay with Klebsiella pneumoniae worked out at 4 µg/mL (≈ 10.4 µM); in the assay with Staphylococcus aureus, 0.5 µg/mL (≈ 1.3 µM); in the assay with Escherichia coli [1], 0.001 µg/mL (≈ 0.0026 µM); in the assay on Escherichia coli [2] it was 0.015 µg/mL (≈ 0.039 µM); in the assay on Acinetobacter baumannii it was 1 µg/mL (≈ 2.6 µM); against Pseudomonas aeruginosa it was 1 µg/mL (≈ 2.6 µM).
Take `CCc1c(-c2ccc(Cl)cc2)[nH]c(=O)c2c(=O)[nH]sc12`: the MIC against Klebsiella pneumoniae was 128 µg/mL (≈ 417 µM); in the assay with Staphylococcus aureus it was 8 µg/mL (≈ 26.1 µM); against Escherichia coli [1] it was 0.25 µg/mL (≈ 0.815 µM); in the assay with Escherichia coli [2] it was 16 µg/mL (≈ 52.2 µM); with Acinetobacter baumannii, 16 µg/mL (≈ 52.2 µM); against Pseudomonas aeruginosa, more than 128 µg/mL.
`CCc1c(-c2ccc(N3CCC(N)C3)cc2)[nH]c(=O)c2c(=O)[nH]sc12` (stereo unspecified): the MIC against Klebsiella pneumoniae is 4 µg/mL (≈ 11.2 µM); against Staphylococcus aureus, 0.12 µg/mL (≈ 0.337 µM); in the assay with Escherichia coli [1], not above 0.0001 µg/mL; in the assay on Escherichia coli [2], 0.002 µg/mL (≈ 0.00561 µM); in the assay with Acinetobacter baumannii, 64 µg/mL (≈ 180 µM); with Pseudomonas aeruginosa it was 0.06 µg/mL (≈ 0.168 µM).
For the compound `CCc1c(-c2cccc(N3CCC(NC)C3)c2)[nH]c(=O)c2c(=O)[nH]sc12` (stereo unspecified), the MIC in the assay with Klebsiella pneumoniae was more than 128 µg/mL; in the assay with Staphylococcus aureus, 32 µg/mL (≈ 86.4 µM); in the assay on Acinetobacter baumannii, more than 128 µg/mL; against Pseudomonas aeruginosa, more than 128 µg/mL.
Take `CCc1c(-c2ccc(N3CCC(F)(F)C3)cc2)[nH]c(=O)c2c(=O)[nH]sc12`: the MIC in the assay with Klebsiella pneumoniae was more than 64 µg/mL; in the assay on Staphylococcus aureus, 0.12 µg/mL (≈ 0.318 µM); against Escherichia coli [1], 0.12 µg/mL (≈ 0.318 µM); in the assay on Escherichia coli [2], 0.5 µg/mL (≈ 1.32 µM); in the assay on Acinetobacter baumannii, more than 64 µg/mL; against Pseudomonas aeruginosa it was 4 µg/mL (≈ 10.6 µM).
With `CCc1c(-c2ccc(N3CCC(N(C)C)CC3)cc2)[nH]c(=O)c2c(=O)[nH]sc12`, the MIC against Klebsiella pneumoniae is more than 64 µg/mL; against Staphylococcus aureus, 16 µg/mL (≈ 40.1 µM); against Escherichia coli [1] it was 0.5 µg/mL (≈ 1.25 µM); against Escherichia coli [2], 16 µg/mL (≈ 40.1 µM); against Acinetobacter baumannii, more than 64 µg/mL; with Pseudomonas aeruginosa it was 64 µg/mL (≈ 161 µM).
With `CCc1c(-c2ccc(N3CCC(NC)CC3)cc2)[nH]c(=O)c2c(=O)[nH]sc12`, the MIC in the assay on Klebsiella pneumoniae is more than 64 µg/mL; with Staphylococcus aureus, 16 µg/mL (≈ 41.6 µM); in the assay with Escherichia coli [1], 1 µg/mL (≈ 2.6 µM); against Escherichia coli [2], 32 µg/mL (≈ 83.2 µM); with Acinetobacter baumannii, more than 64 µg/mL; against Pseudomonas aeruginosa, 64 µg/mL (≈ 166 µM).
For the compound `CCc1c(-c2ccc(N3CCC(CNC)C3)cc2)[nH]c(=O)c2c(=O)[nH]sc12` (stereo unspecified), the MIC with Klebsiella pneumoniae is 32 µg/mL (≈ 83.2 µM); in the assay with Staphylococcus aureus, 2 µg/mL (≈ 5.2 µM); in the assay with Escherichia coli [1], 0.008 µg/mL (≈ 0.0208 µM); against Escherichia coli [2], 1 µg/mL (≈ 2.6 µM); against Acinetobacter baumannii it was more than 128 µg/mL; in the assay on Pseudomonas aeruginosa, 2 µg/mL (≈ 5.2 µM).
Regarding `CCc1c(-c2ccc(N3C[C@@H]4CCCN[C@@H]4C3)cc2)[nH]c(=O)c2c(=O)[nH]sc12`, the MIC in the assay on Klebsiella pneumoniae stood at 4 µg/mL (≈ 10.1 µM); against Staphylococcus aureus, 1 µg/mL (≈ 2.52 µM); in the assay with Escherichia coli [1], 0.008 µg/mL (≈ 0.0202 µM); against Escherichia coli [2], 0.5 µg/mL (≈ 1.26 µM); with Acinetobacter baumannii, 8 µg/mL (≈ 20.2 µM); against Pseudomonas aeruginosa it was 1 µg/mL (≈ 2.52 µM).
In the case of `CCc1c(-c2ccc(N3CCNCC3)cc2)[nH]c(=O)c2c(=O)[nH]sc12`, the MIC against Klebsiella pneumoniae is 64 µg/mL (≈ 180 µM); against Staphylococcus aureus it was 8 µg/mL (≈ 22.4 µM); in the assay with Escherichia coli [1] it was 0.5 µg/mL (≈ 1.4 µM); in the assay with Escherichia coli [2], 4 µg/mL (≈ 11.2 µM); against Acinetobacter baumannii it was more than 64 µg/mL; in the assay with Pseudomonas aeruginosa, 16 µg/mL (≈ 44.9 µM).
In the case of `CCc1c(-c2ccc(N3C[C@@H]4CCN(C)[C@@H]4C3)cc2)[nH]c(=O)c2c(=O)[nH]sc12`, the MIC against Klebsiella pneumoniae is 8 µg/mL (≈ 20.2 µM); with Staphylococcus aureus it was 4 µg/mL (≈ 10.1 µM); against Escherichia coli [1] it was 0.06 µg/mL (≈ 0.151 µM); against Escherichia coli [2], 0.5 µg/mL (≈ 1.26 µM); with Acinetobacter baumannii it was 8 µg/mL (≈ 20.2 µM); in the assay on Pseudomonas aeruginosa, 8 µg/mL (≈ 20.2 µM).
As to `CCc1c(-c2ccc(N3CC[C@@H](N(C)C)C3)cc2)[nH]c(=O)c2c(=O)[nH]sc12`, the MIC turned out to be 8 µg/mL (≈ 20.8 µM) in the assay with Klebsiella pneumoniae; 2 µg/mL (≈ 5.2 µM) with Staphylococcus aureus; 0.03 µg/mL (≈ 0.078 µM) against Escherichia coli [1]; 0.5 µg/mL (≈ 1.3 µM) against Escherichia coli [2]; 4 µg/mL (≈ 10.4 µM) in the assay on Acinetobacter baumannii; 1 µg/mL (≈ 2.6 µM) in the assay with Pseudomonas aeruginosa.
Regarding `CCc1c(-c2ccc(N3CC[C@@H](O)C3)cc2)[nH]c(=O)c2c(=O)[nH]sc12`, the MIC was 2 µg/mL (≈ 5.6 µM) against Klebsiella pneumoniae; 0.015 µg/mL (≈ 0.042 µM) with Staphylococcus aureus; 0.008 µg/mL (≈ 0.0224 µM) in the assay on Escherichia coli [1]; 0.12 µg/mL (≈ 0.336 µM) in the assay with Escherichia coli [2]; 16 µg/mL (≈ 44.8 µM) against Acinetobacter baumannii; 1 µg/mL (≈ 2.8 µM) in the assay with Pseudomonas aeruginosa.

A word on the MIC: it is the least concentration at which growth counts as inhibited. The low end stands for inhibition by little substance, the high end for a need for much substance.
